For test [1], the target named is LFA-1/ICAM-1 (Homo sapiens, UniProt P05107+P20701). As to the kind of experiment: LFA-1 dependent cell adhesion to ICAM-1. In kind it is cell-based. The note with it: FIG. 4; ICAM-1 and Cmpd 1 versus BSA, ICAM-1 alone, Ig and anti-integrin antibodies. From the text: Referring now to FIG. 4, a histogram is shown of induced LFA-1 ([…]) dependent cell adhesion to ICAM-1 in the presence of BSA, ICAM-1, ICAM-1 and a compound of Formula (I) (Cmpd 1), Ig, anti-α4, anti-αL, anti-β1, and anti-β2.
Sequence of LFA-1/ICAM-1 (P20701 26-1170): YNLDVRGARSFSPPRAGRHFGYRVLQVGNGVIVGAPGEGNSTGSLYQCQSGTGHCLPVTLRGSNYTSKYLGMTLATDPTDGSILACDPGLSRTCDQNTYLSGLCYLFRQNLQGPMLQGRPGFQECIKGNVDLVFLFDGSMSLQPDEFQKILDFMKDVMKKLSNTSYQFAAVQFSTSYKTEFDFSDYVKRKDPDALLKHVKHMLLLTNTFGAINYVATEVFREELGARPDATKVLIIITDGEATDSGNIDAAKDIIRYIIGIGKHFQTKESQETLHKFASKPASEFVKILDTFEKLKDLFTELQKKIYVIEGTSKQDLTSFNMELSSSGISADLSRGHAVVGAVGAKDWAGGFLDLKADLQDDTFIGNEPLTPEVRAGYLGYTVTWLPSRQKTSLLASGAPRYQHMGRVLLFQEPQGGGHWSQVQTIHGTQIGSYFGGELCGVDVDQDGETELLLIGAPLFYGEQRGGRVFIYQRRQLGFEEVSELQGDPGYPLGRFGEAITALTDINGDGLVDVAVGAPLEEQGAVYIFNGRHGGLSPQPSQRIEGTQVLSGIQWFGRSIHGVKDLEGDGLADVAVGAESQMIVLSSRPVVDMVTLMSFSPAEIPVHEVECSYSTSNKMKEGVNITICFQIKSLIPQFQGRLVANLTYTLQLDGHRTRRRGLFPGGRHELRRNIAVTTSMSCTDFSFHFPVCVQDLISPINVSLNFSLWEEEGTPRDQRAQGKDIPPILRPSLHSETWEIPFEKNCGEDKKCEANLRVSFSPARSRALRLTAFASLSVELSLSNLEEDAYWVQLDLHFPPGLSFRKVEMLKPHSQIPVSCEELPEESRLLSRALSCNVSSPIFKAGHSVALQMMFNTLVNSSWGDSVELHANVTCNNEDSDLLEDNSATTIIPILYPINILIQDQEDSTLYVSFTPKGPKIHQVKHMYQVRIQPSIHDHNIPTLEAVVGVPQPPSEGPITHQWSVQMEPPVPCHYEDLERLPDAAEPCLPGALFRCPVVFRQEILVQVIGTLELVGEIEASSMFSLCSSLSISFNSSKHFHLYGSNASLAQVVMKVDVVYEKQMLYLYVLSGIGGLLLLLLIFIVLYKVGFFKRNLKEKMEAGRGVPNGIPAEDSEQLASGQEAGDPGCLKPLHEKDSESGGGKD
Sequence of LFA-1/ICAM-1 (P05107 23-769): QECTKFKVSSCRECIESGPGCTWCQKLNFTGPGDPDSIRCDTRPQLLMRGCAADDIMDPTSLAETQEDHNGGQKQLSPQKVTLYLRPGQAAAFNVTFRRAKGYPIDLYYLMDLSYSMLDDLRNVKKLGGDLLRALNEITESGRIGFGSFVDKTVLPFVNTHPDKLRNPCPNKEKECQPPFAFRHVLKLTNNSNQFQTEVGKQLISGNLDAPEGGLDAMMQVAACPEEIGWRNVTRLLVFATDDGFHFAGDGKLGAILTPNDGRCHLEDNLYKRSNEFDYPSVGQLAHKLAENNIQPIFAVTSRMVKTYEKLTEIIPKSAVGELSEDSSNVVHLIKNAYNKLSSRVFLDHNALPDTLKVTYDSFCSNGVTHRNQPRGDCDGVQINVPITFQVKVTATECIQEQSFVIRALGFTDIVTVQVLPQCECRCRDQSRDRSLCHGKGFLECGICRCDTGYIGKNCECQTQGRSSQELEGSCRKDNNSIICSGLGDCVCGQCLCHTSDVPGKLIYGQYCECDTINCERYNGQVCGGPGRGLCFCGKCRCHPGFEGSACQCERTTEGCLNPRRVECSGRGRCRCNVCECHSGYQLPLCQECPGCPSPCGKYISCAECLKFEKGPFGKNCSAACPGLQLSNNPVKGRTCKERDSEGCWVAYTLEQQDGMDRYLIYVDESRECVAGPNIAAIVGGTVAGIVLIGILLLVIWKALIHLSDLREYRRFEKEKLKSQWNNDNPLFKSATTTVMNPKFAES
(§1) Activating all integrins is necessary for firm endothelial cell adhesion for extravasation.

Test [2] addresses α1b1/Collagen IV (Homo sapiens, UniProt P05556+P56199). Put plainly: Integrin activation, adhesion α1b1/Collagen IV. To be noted: 50% serum; n = 3. On the set-up: key: Not Active: Not active: ≤2 fold increase in adhesion. It counts as cell-based.
Text: as §1

For test [3], the system named is VCAM-1. As to the kind of experiment: Cell migration across VCAM-1 membrane toward SDF-1. It counts as cell-based. To be noted: FIG. 5; different concentrations; SDF-1 in bottom part. The method, then:
(§2) Referring now to FIG. 5, an apparatus for testing VCAM-1 and ICAM-1 cell migration, where the cells are initially placed in the top part of the apparatus including a member including VCAM-1 or ICAM-1, with the bottom part of the apparatus initially including SDF-1. Cell migration is then measured from top part to the bottom part for different concentration of CDPD 1, a compound of Formula (I) of VCAM-1 and ICAM-1 impregnated membrane.

Test [4] concerns ICAM-1. Put plainly: Cell migration across ICAM-1 membrane toward SDF-1. The note with it: FIG. 5; different concentrations; SDF-1 in bottom part. It counts as cell-based. The method, then:
as §2

The test system of test [5] is CT26 colon cancer syngeneic tumor. Put plainly: Study 2: CT26 syngeneic tumor model in Balb/c mice. To be noted: for % Tumor Growth Inhibition: 1 mg/kg IP QD at 4 h; for Average Tumor Volume, Mean: 1 mg/kg IP QD. In kind it is in vivo, Mouse (Mus musculus). The method, then:
Mouse colon carcinoma CT26 cells were obtained from American Type Culture Collection (ATCC), USA. Cells were grown in RPMI-1640 medium (Sigma, Cat # R6504) supplemented with 10% FBS (Invitrogen, Cat #10438-026), and 1% penicillin streptomycin (Thermo Fisher Scientific, Cat #15140-122). To establish allografts, 1 million CT26 cells were suspended in 50 μL of serum-free medium and mixed at 1:1 ratio with matrigel before implanting subcutaneously into the right flank of mice.
Prior to inoculation, the skin on the injection site was swabbed with alcohol. To establish allografts, CT26 cells were suspended in serum free medium at a concentration of (1×10^6)/50 μL, mixed with equal volume of matrigel (1:1 ratio) and 100 μL of this mixture was injected to each mouse by subcutaneous implantation using a 1 mL BD syringe attached to a 24 gauge needle.
CT26 tumor xenografts were measured after approximately 1 week of cell inoculation when they become palpable. When the average tumor volume reaches around 110 mm^3, animals were randomized into treatment groups group maintaining the average tumor volume of each group similar across groups for Study 1 and Study 2. In Study 3, the animals were randomized on the basis of body weights +1 day post cell implantation.
Tumor dimensions (length and breadth) were measured on days 0 (animal randomization based on tumor volume) and thrice weekly thereafter until study termination. Tumor volumes were calculated using the formula (b^2*l)*0.52 where l=length, b=breadth (Dusan Djokovic et al., BMC Cancer, 2010, 10:641). Tumor growth inhibition was calculated after normalizing the tumor volume on a given day to that on day 1.
Mean body weight loss and percent changes were calculated for each group. Similarly, mean tumor volume and percent tumor growth inhibition were calculated. The percent tumor growth inhibition (% TGI) as a function of anti-tumor efficacy were computed with respect to untreated vehicle control by comparing to the tumor volumes of day 1 using formula described below: % TGI=[1−(Treatment TVFinal−Treatment TVInitial)/(Control TVFinal−Control TVInitial)]*100
The test agent, Compound 1 was evaluated in CT26 syngeneic tumor model in Balb/c mice. Compound 1 was administered in mice when the starting tumor volume reached 110±6.9 mm^3 seven days after implantation of CT26 cells.

The structures appear in SMILES notation. Marks after values point to notes of the source that are not given here.

Sequence of α1b1/Collagen IV (P56199 29-1179): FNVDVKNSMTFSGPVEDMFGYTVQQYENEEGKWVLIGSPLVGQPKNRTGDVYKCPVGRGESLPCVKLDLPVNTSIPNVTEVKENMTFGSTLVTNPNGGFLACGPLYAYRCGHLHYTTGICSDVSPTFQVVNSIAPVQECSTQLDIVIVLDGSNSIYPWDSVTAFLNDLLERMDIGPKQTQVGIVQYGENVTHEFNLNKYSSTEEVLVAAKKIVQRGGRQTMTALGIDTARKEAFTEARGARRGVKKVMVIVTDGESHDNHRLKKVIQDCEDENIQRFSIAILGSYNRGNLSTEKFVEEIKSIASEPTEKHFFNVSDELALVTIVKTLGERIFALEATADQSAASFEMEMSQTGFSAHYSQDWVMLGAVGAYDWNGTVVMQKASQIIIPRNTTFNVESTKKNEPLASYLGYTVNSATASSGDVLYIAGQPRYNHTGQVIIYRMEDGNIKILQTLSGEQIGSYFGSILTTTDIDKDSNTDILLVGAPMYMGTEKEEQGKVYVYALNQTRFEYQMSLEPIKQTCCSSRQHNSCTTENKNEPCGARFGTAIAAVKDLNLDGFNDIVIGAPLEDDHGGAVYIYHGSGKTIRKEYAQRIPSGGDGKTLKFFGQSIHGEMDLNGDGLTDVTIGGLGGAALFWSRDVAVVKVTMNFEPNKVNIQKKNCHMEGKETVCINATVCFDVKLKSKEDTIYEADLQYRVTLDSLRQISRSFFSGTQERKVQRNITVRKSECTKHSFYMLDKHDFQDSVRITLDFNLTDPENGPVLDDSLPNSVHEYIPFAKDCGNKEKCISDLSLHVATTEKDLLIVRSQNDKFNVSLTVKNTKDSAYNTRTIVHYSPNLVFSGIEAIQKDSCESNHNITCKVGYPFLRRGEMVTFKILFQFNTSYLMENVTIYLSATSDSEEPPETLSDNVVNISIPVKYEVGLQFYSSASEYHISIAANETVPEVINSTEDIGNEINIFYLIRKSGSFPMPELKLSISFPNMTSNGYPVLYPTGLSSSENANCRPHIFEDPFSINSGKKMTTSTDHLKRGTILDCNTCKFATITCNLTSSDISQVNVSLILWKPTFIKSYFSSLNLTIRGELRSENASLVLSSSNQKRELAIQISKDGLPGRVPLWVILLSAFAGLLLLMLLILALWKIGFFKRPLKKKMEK
Sequence of α1b1/Collagen IV (P05556 21-798): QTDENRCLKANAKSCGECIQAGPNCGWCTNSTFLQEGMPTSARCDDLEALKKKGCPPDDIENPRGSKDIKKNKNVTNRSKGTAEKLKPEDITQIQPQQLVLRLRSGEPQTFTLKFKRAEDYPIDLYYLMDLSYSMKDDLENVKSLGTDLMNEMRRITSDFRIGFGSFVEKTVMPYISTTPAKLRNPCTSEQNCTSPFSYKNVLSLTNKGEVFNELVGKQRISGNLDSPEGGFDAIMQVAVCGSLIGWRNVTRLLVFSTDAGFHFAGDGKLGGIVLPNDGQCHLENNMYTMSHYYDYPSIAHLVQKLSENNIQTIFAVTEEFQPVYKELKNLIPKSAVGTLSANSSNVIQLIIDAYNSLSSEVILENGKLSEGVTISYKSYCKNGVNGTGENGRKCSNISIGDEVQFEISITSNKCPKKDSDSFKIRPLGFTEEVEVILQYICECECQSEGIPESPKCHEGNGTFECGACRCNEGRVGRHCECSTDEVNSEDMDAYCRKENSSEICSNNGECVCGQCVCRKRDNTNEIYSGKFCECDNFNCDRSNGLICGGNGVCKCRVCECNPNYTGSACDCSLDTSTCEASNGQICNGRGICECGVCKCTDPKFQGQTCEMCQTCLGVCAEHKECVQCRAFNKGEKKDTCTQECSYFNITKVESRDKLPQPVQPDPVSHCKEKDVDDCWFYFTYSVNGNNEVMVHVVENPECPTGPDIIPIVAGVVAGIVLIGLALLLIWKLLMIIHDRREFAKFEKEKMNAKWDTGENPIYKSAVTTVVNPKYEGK

For the compound `O=C(OCCOCCOCCOC(=O)N(Cc1cccs1)Cc1cccs1)N(Cc1cccs1)Cc1cccs1` [Compound 1, 3-oxo-1-(2-thienyl)-2-(2-thienylmethyl)-4,7,10-trioxa-2-azadodecan-12-yl bis(2-thienylmethyl)carbamate], the “bound cells, adhesion to ICAM-1” value in test [1] was “highest bound cells”. Moreover, in test [2], the “Integrin Selectivity EC50 α1b1/Collagen IV” value was “Not Active”. In addition, the “cell migration, VCAM-1” value in test [3] is “migration enhancement”. In test [4], the “cell migration, ICAM-1” value is “migration enhancement”. For the same compound, the “% Tumor Growth Inhibition” value in test [5] (Day 2) is listed as −6.6%; in test [5] (Day 4), 33.0%; in test [5] (Day 6) it was 38.9%; in test [5] (Day 8) it was 31.6%; in test [5] (Day 10) it was 33.5%; in test [5] (Day 13), 46.0%. Moreover, the “Average Tumor Volume, Mean” value in test [5] (Day 1) was 111 mm^3; in test [5] (Day 2), 171 mm^3; in test [5] (Day 4), 244 mm^3; in test [5] (Day 6) it was 343 mm^3; in test [5] (Day 8) it was 545 mm^3; in test [5] (Day 10), 744* mm^3. In test [5] (Day 13), the “Average Tumor Volume, Mean” value is listed as 1038^‡ mm^3.

The record behind these values is patent US12636274B2, “Pharmaceutical compositions and methods for systemic treatment of solid tumors” (7 HILLS INTERESTS LLC, priority 2014, dated 2026).
